In ChEMBL document CHEMBL1136349, “Identification of a monoacid-based, cell permeable, selective inhibitor of protein tyrosine phosphatase 1B” (Bioorg Med Chem Lett, 2003) one finds Ki and Papp data, which are given here for 15 molecules.

In one assay the target is T1, Tyrosine-protein phosphatase non-receptor type 1 (Homo sapiens, UniProt P18031).
T1 sequence (P18031 whole entry): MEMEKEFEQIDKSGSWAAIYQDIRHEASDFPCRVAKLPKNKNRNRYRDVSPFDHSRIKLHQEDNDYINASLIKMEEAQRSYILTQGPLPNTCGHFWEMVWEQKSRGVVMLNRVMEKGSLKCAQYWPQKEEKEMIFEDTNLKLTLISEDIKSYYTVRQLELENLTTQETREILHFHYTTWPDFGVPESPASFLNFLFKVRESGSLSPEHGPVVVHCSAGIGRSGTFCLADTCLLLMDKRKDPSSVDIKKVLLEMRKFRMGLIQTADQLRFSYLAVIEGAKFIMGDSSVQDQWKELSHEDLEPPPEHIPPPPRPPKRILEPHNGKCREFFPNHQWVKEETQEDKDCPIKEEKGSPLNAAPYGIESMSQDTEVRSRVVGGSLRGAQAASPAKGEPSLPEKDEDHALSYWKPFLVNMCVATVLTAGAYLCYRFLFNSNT
The assay can be described thus: Inhibition of Protein-tyrosine phosphatase 1B.
Conditions: not given
On to `COC(=O)c1c(O)cccc1OCCCCNC(=O)[C@H](Cc1ccc(OCC(=O)O)c(N)c1)NC(C)=O`, for which the Ki (usually the dissociation constant of the complex between target and ligand, obtained from inhibition or displacement) was above 200 µM.

With `COC(=O)c1c(O)cccc1OCCCCNC(=O)[C@H](Cc1ccc(NS(=O)(=O)C(F)(F)F)cc1)NC(C)=O`, the Ki is above 200 µM.

With `COC(=O)c1c(O)cccc1OCCCCNC(=O)[C@H](Cc1ccc(NC(=O)C(=O)O)cc1)NC(C)=O`, the affinity, expressed as Ki, was 6.1 µM.

`COC(=O)c1c(O)cccc1OCCCCNC(=O)[C@H](Cc1ccc(NC(=O)CO)cc1)NC(C)=O` displayed a Ki above 200 µM.

`COC(=O)c1c(O)cccc1OCCCCNC(=O)[C@H](Cc1ccc(NC(=O)C(F)(F)F)cc1)NC(C)=O` returned a Ki above 200 µM.

`COC(=O)c1c(O)cccc1OCCCCNC(=O)[C@H](Cc1ccc(OC(CO)C(=O)O)cc1)NC(=O)OC(C)(C)C` (stereo not given in full) returned a Ki above 200 µM.

Molecule `CCCCC(C)NC(=O)[C@H](Cc1ccc(OCC(=O)O)c(C2N=NN=N2)c1)NC(=O)[C@H](Cc1ccccc1)NC(=O)OC(C)(C)C` (stereo not given in full) registered a Ki of 2 µM.

`COC(=O)c1c(O)cccc1OCCCCNC(=O)[C@H](Cc1ccc(/C=C\C(=O)O)cc1)NC(=O)OC(C)(C)C` displayed a Ki above 200 µM.

The molecule `COC(=O)c1c(O)cccc1OCCCCNC(=O)[C@H](Cc1ccc(NCC(=O)O)cc1)NC(=O)OC(C)(C)C` registered a Ki above 200 µM.

As for `COC(=O)c1c(O)cccc1OCCCCNC(=O)[C@H](Cc1ccc(NC(=O)c2ncccc2O)cc1)NC(C)=O`, the Ki was above 200 µM.

On to `COC(=O)c1c(O)cccc1OCCCCNC(=O)[C@H](Cc1ccc(OCC(=O)O)c(C(=O)O)c1)NC(C)=O`, for which the Ki was determined as 2.2 µM.

For the next assay, the system named is Caco-2. The experiment in a line: Papp in Caco-2 permeability assay. The format is functional, cell-based. The settings on record: Homo sapiens. (Passage across Caco-2 layers is used to estimate intestinal permeability.)
As to `COC(=O)c1c(O)cccc1OCCCCNC(=O)[C@H](Cc1ccc(OCC(=O)O)c(O)c1)NC(C)=O`, the Papp (usually the rate of passage across a membrane or cell layer, normalised by area and donor concentration) is above 1e-05 cm/s.

For the molecule `COC(=O)c1c(O)cccc1OCCCCNC(=O)[C@H](Cc1ccc(NC(=O)C(=O)O)cc1)NC(=O)OC(C)(C)C`, the Papp was below 1e-06 cm/s.

`CCc1cc(CC(NC(C)=O)C(=O)NCCCCOc2cccc(O)c2C(=O)OC)ccc1N(C(=O)C(=O)O)c1ccccc1C(=O)O` (stereo not given) yielded a Papp below 1e-06 cm/s.

On to `COC(=O)c1c(O)cccc1OCCCCNC(=O)[C@H](Cc1ccc(OCC(=O)O)cc1)NC(=O)OC(C)(C)C`, for which the Papp came out at 1e-05 cm/s.
